As usually defined, the melting point is the temperature, or range, at which the solid turns liquid.

The results in this text go back to a melting point compilation (Tetko et al.).

`O=C(Nc1ccccc1)C(C(F)(F)F)C(F)(F)F` returned a melting point of 165 to 167 °C.

Molecule `CC(=O)c1cc(C(C)=O)c(O)cc1O` gave a melting point of 180 °C.

As for `CC12C=CC3=C4CCC(=O)C=C4CCC3C1CCC2O` (configuration not stated), the melting point came to 93 °C.

Molecule `O=C(Nc1c(Cl)cc(Cl)cc1Cl)C(F)(F)C(F)(F)C(F)(F)C(F)(F)C(F)(F)C(F)(F)C(F)(F)C(F)(F)F` gave a melting point of 115 °C.

In the case of `N#CCc1ccc(OC(F)(F)F)cc1`, the melting point amounted to 29 °C.

Turning to `O=C1NCCCN1`, the melting point is 265 °C.

Turning to `O=Cc1ccccc1/C=C/c1ccc([N+](=O)[O-])cc1[N+](=O)[O-]`, the melting point turned out to be 186 °C.

`CCCCC1C(=O)NC(=O)N(C2CCCCC2)C1=O` (configuration not stated) showed a melting point of 84 °C.

For the molecule `C[Si](C)(C)C#CC#C[Si](C)(C)C`, the melting point turned out to be 112 °C.

In the case of `ON(Cc1ccccc1)Cc1ccccc1`, the melting point was determined as 123 °C.

`COc1cc(C=C2SC(=S)N(CNc3cccc([N+](=O)[O-])c3)C2=O)ccc1O` registered a melting point of 214 to 215 °C.

As for `O=[N+]([O-])c1cc([N+](=O)[O-])c(C2CO2)cc1C1CO1` (configuration not stated), the melting point is 153 to 154 °C.

`Clc1ccc(COC(Cn2ccnc2)c2ccc(Cl)cc2Cl)cc1` (configuration not stated) returned a melting point of 86.8 °C.

In turn, `Cc1cc2ccccc2cc1CC(F)(F)F` gave a melting point of 75 to 75.5 °C.

Take `O=C1c2ccccc2C(=O)N1c1ccc(Cl)cc1`: the melting point worked out at 197 °C.

Turning to `O=[N+]([O-])c1ccc(-c2nnc3n2NC(c2ccccc2O)S3)cc1` (configuration not stated), the melting point worked out at 195 °C.

In the case of `CC(=O)C(=NNc1cccc([N+](=O)[O-])c1)C(C)=O`, the melting point is 184 °C.

`Cc1cc(O)cc(C)c1Br` returned a melting point of 115 °C.

Turning to `COc1cc(C)c(Cl)cc1S(N)(=O)=O`, the melting point was found to be 170 °C.

The molecule `CCOC(=O)Cc1ccc(Br)cc1` yielded a melting point of 30 °C.

Take `O=C(O)c1c[nH]c2ccccc12`: the melting point was 200 to 203 °C.

For `CC(C)c1cc(C(=O)O)c(O)c(C(C)C)c1`, the melting point amounted to 117 °C.

As to `Cc1ccc(NC(=O)C(F)(F)C(F)(F)C(F)(F)C(F)(F)C(F)(F)C(F)(F)C(F)(F)C(F)(F)F)c(C)c1`, the melting point was found to be 83 °C.

Consider `Cc1nn(-c2ccccc2)nc1C(=O)NNC(=S)Nc1ccccc1`, for which the melting point lay in the range of 205 to 206 °C.

In the case of `C=C=Cn1cnc2c(N)ncnc21`, the melting point is 186 °C.

`O=C(O)c1cc(Br)cc2c1OCC2` returned a melting point of 230 °C.

`CSC(SC)=C(C#N)C#N`: the melting point was 82 to 84 °C.

Turning to `NC(=O)OCC(O)c1ccccc1` (configuration not stated), the melting point is 112 °C.

Consider `O=C(O)C(Cl)CCl` (configuration not stated), for which the melting point was 50 °C.

As for `CC(C)(C)OC(=O)N1CCC(Oc2ccccc2N)CC1`, the melting point was in the range of 71 to 78 °C.

For `O=C(O)c1scc2c1CCCC2`, the melting point fell in the range of 203 to 205 °C.

In turn, `CCOP(=O)(OCC)OC(=CCl)c1ccc(Cl)cc1Cl` showed a melting point of -20 °C.

Consider `CCOC(=O)N1c2ccccc2C=CC1OCC` (configuration not stated), for which the melting point stood at 64.5 °C.

In the case of `Oc1ccc2c(O)cccc2c1`, the melting point is 138 °C.

`COC(=O)c1cc(C)c(S(=O)(=O)Cl)s1` showed a melting point of 40 to 41 °C.

`NC(COc1ccccc1)=NO` had a melting point of 93 to 94 °C.

`COP(=S)(OC)SCc1nc(N)nc(N)n1` came in with a melting point of 165 °C.

The molecule `Cc1ccsc1C=CC1=NCCCN1C` gave a melting point of 240 °C.

For `O=C1C=CC(=O)N1c1ccc(Br)cc1`, the melting point lay in the range of 135 to 137 °C.

In turn, `Brc1c2ccccc2cc2ccccc12` displayed a melting point of 100 °C.

`CCCCCCCCOC(=O)CCCCC` gave a melting point of -28 °C.

`Nc1ccccc1-n1cccc1`: the melting point lay within 94 to 98 °C.

Molecule `O=C(O)c1cc(-c2ccccc2)c(C(F)(F)F)s1` returned a melting point of 130 to 132 °C.

`Ic1ccc(Cn2cncn2)cc1` gave a melting point of 82 to 84 °C.

`O=C(O)c1c(F)c(F)c(F)c(C(=O)O)c1F` displayed a melting point of 209 to 213 °C.

Molecule `CC1=C(C(=O)OC(C)C)C(c2ccco2)NC(=S)N1` (configuration not stated) gave a melting point of 191 °C.

Consider `N=C(N)NC(=N)NCCc1ccccc1`, for which the melting point is 176 °C.

`Nc1cc(-c2ccc(Cl)cc2)n[nH]1` returned a melting point of 174 to 176 °C.

`CCCCCCCC(=O)CC` gave a melting point of 2.5 °C.

For `CCC(C)CC(=O)O` (racemic), the melting point was -41 °C.

As for `CN1CCOc2cc(Br)cnc21`, the melting point lay within 77 to 79 °C.

In turn, `N#C/C(=C\c1ccccc1O)c1nc2ccccc2s1` yielded a melting point of 188 °C.

For the molecule `O=C(CS(=O)(=O)c1ccccc1)c1ccccc1`, the melting point fell in the range of 92 to 95 °C.

For `COc1ccc(CNC(=O)c2ccccc2)cc1OCc1ccccc1`, the melting point stood at 143 °C.

Molecule `Oc1c(F)c(F)c(F)c2c(F)c(F)c(F)c(F)c12` registered a melting point of 103 to 107 °C.

In the case of `CCCCNC(=O)c1ccc2cc(O)c(O)cc2c1`, the melting point came out at 194 °C.

Regarding `CSc1ccccc1C(=O)O`, the melting point lay in the range of 170 to 173 °C.

`N=C(N)NC(=O)Cc1c(Cl)cccc1Cl`: the melting point is 226 °C.

For `O=C(Cl)c1ccccc1Oc1ccccc1`, the melting point was 37 to 39 °C.

`CCCCC(=O)OC(=O)CCCC` returned a melting point of -56.1 °C.

In turn, `Nc1nc(N)sc(=S)n1` returned a melting point of 360 °C.

The molecule `O=C(O)CCC(=O)c1ccc(C2CCCCC2)c(Cl)c1` showed a melting point of 163 °C.

In the case of `COc1ccc(C=C2N=C(c3ccccc3)OC2=O)cc1OC`, the melting point was 132 to 133 °C.

`O=C(O)Cc1ccc(F)c(Cl)c1`: the melting point came out at 57 °C.

Turning to `Clc1cc(Cl)c2oc3c(Cl)c(Cl)c(Cl)cc3c2c1`, the melting point came out at 219 °C.

The molecule `Nc1nnc(Sc2ncccc2[N+](=O)[O-])s1` came in with a melting point of 216 °C.

`C=C(Br)CC1(C(C)CC)C(=O)NC(=O)NC1=O` (configuration not stated) registered a melting point of 132 °C.

In turn, `CC(C)(C)OC(=O)N1CCC(Oc2ccc(C(=O)O)cc2)CC1` gave a melting point of 175 to 177 °C.

In turn, `CC(C)(C)c1csc(-c2ccc(C=O)cc2)n1` returned a melting point of 106 to 107 °C.

In turn, `COC(=O)c1ccc2nccnc2c1` registered a melting point of 99 to 100 °C.

The molecule `COC(=O)c1cc(C=O)cn1C` had a melting point of 100 to 101 °C.

`O=[N+]([O-])c1c[nH]cn1` had a melting point of 303 °C.

In turn, `CCC1NC(=O)c2cc(S(N)(=O)=O)c(Cl)cc2N1` (configuration not stated) had a melting point of 251 °C.

In turn, `Brc1cc2ccc1CCc1ccc(c(Br)c1)CC2` displayed a melting point of 251 °C.

Molecule `CC(C)(C)N(NC(=O)c1ccccc1)C(=O)c1ccc(C#N)cc1` showed a melting point of 200 °C.

In turn, `Oc1c(-c2ccccc2)cccc1-c1ccccc1` gave a melting point of 102 °C.

Molecule `CCCOC(=O)C1=C(C)NC(=O)NC1c1ccccc1` (configuration not stated) yielded a melting point of 176 °C.

`Nc1nn2c(C(F)(F)F)cc(=O)[nH]c2c1/N=N/c1cccc2ccccc12` had a melting point of 290 °C.

`O=C(O)Cc1ccc(Cl)c(Cl)c1` gave a melting point of 90 °C.

For the molecule `NC(Cc1c[nH]c2ccc(Br)cc12)C(=O)O` (racemic), the melting point was 261 to 267 °C.

With `Fc1nc(F)c(Cl)c(F)c1Cl`, the melting point was determined as 25 °C.

Molecule `COc1ccc(CCl)cc1` showed a melting point of 24.5 °C.

For `CCOC(=O)c1c(NC(=S)Nc2cccc(Cl)c2)sc2c1CCCC2`, the melting point was 175 to 177 °C.

In turn, `CSc1ncc(C=O)n1Cc1ccccc1` gave a melting point of 86 to 88 °C.

Take `Fc1cccc(F)c1`: the melting point is -59 °C.

Consider `NC(=O)C=CC(=O)O`, for which the melting point worked out at 172 °C.

In turn, `O=C(CBr)c1cc(-c2ccc(Cl)cc2)no1` came in with a melting point of 157 to 158 °C.

In turn, `CC1=NN(c2ccccc2)C(=O)/C1=N\Nc1cccc(C(F)(F)F)c1` had a melting point of 171 °C.

As to `N#C/C(=C\c1c(Cl)cccc1Cl)c1nc(-c2ccccc2)cs1`, the melting point came to 96 °C.

In turn, `O=C(O)[C@@H]1CCCC[C@H]1C(=O)c1ccccc1` (relative stereo) gave a melting point of 150 to 153 °C.

In turn, `CC(=O)Oc1ccccc1-c1ccccc1` gave a melting point of 65 °C.

The molecule `O=Cc1ccc(O)c(Br)c1` had a melting point of 127 °C.

On to `ON=Cc1ccc(F)cc1`, for which the melting point stood at 83.5 °C.

The molecule `COc1ccc(-c2csc(/C(C#N)=N/Nc3cccc(C)c3C)n2)cc1` yielded a melting point of 164 °C.

The molecule `O=C1c2ccccc2N(C(=O)CN2CCOCC2)CN1c1ccccc1` returned a melting point of 136 °C.

As to `O=C(Nc1ccccc1CCc1ccccc1)c1ccccc1`, the melting point stood at 166 °C.

In turn, `CC(=O)CC(=O)c1cccnc1` returned a melting point of 85 °C.

Regarding `Cc1nn(C)c(C)c1S(=O)(=O)Cl`, the melting point lay in the range of 39 to 42 °C.

Take `CC(C)(C)[N+]([O-])=Cc1ccccc1`: the melting point fell in the range of 71 to 75 °C.

In turn, `c1ccc2c(c1)C1c3ccccc3C2c2ccccc21` showed a melting point of 254 °C.

`O=Cc1ccc(CBr)cc1` displayed a melting point of 99 to 100 °C.

On to `O=C1OC(=O)c2c(F)c(F)c(F)c(F)c21`, for which the melting point is 95 °C.

On to `N#Cc1nc[nH]c1C#N`, for which the melting point turned out to be 175 °C.

As to `CSc1n[nH]c(N)c1C(N)=O`, the melting point turned out to be 176 °C.

Take `OC1OCCCC1(Cl)Cl` (configuration not stated): the melting point is 87 to 90 °C.

On to `Brc1ccc(Oc2ccccc2Br)cc1`, for which the melting point was under 20 °C.

Consider `Nc1ccc2cc(N)ccc2c1`, for which the melting point was 213 °C.

In turn, `CCOc1c(N2CCOCC2)cnn(C)c1=O` registered a melting point of 90 °C.

Turning to `CSC(=NOC(=O)N(C)C=C1C=NC=N1)C(=O)N(C)C`, the melting point came out at 252 °C.

As to `NCc1ccc(N2CCCC2)cc1`, the melting point was 37 to 44 °C.

As to `COc1c(F)cc(O)cc1F`, the melting point worked out at 69 °C.

Consider `Cc1cc2ccccc2cc1CCl`, for which the melting point was 65 °C.
